Measurements published in PMC6024615, “Effect of Biliary Drainage on the Toxicity and Toxicokinetics of Amanita exitialis in Beagles” (Toxins, 2018).
*1 amine or outer side, *2 acyl side, *3 side chain or, on linkers, in order; H or OH if unused. Where a SMILES comes first, the peptide text is derived from it. Bridges are numbered along the chain shown (N, C = ends). [ ]: non-standard residue; d: D form. Trp(2-yl) = O=C([C@H](Cc1c([*:3])[nH]c2ccccc12)N[*:1])[*:2]; Leu(4R-OH,5-OH) = C[C@](O)(CO)C[C@H](N)C(=O)O; dAsp(3S-OH) = N[C@@H](C(=O)O)[C@H](O)C(=O)O; cisHyp = O=C(O)[C@@H]1C[C@H](O)CN1

Assays:
[1] = Peptide toxins in the urine of beagles with biliary drainage; format: in vivo, beagle dogs; settings: for Total (accumulated) amount excreted in urine / percentage of total urine excretion, Total: 0–4 days
Description: (§1) The study was approved by National Institute of Occupational Health and Poison Control review board for animal experiments. Twenty-four male beagles (age, 8–10 months; weight, 10 ± 1 kg) were obtained from Beijing Institute of Xieerxin Biology Resource (Beijing, China). They were randomly divided into four groups of six animals each: control, biliary drainage, and 20 and 60 mg/kg with biliary drainage groups. The biliary drainage operation was conducted in all groups barring the control group. The dogs were dressed in homemade underwear, coats, and Elizabeth circles for a week to ensure pre-experimental acclimatization (Figure S8a–c). After determining the baseline values for biochemical indicators, the dogs were fasted for 24 h but received water ad libitum. They were anesthetized by intravenous administration of pentobarbital sodium (3%, 1 mL/kg) during the surgery. A temperature of 38–39 °C was maintained with a warming mat. After skin preservation and sterilization, the abdominal cavity was opened through the central abdomen. The abdomen was explored and blunt dissection of the common bile duct was performed (Figure S8d). The common bile duct and its branches were ligated from the intestinal side. A 7.0-Fr drainage catheter (COOK, Bloomington, IN, USA) was percutaneously inserted into the gallbladder, and a medical drainage bag was connected to the drainage catheter coming out of the abdominal cavity. Each opened layer, including the peritoneum, abdominal wall muscle, and skin, was closed with suture. The operative incision was protected with sterile gauze and a bandage, and the dogs were dressed in homemade underwear, coats, and Elizabeth circles. The drainage bag was placed in the pocket of the coat (Figure S8e). After the anesthetic wore off, the dogs were placed in cages, and food and water were provided ad libitum. The operative incision was sterilized with iodophor twice a day until stitches were removed six days after surgery. The drainage bag was replaced every day. On the eighth day after surgery, the 20 and 60 mg/kg with biliary drainage groups were orally administered a lyophilized powder of Amanita exitialis in starch capsules. In control and bile drainage group, the beagle dogs were fed with empty capsules. Immediately after dosing, the animals were placed in their cages, and food and water were provided ad libitum. Dogs were sacrificed with an overdose of sodium pentobarbital at the end of the experiment. All procedures were performed according to the ethical standards of the National Institutes of Health Guide for Animal Welfare and approved by the Institutional Animal Care and Use Committee (EAWE-2017-005).
(§2) Peptide toxins in blood and urine samples were analyzed as described previously. Bile samples from Days 0–1, Days 1–2, Days 2–3, and Days 3–4 were collected and stored in medical drainage bags and the bile volume was recorded. Plasma and urine samples were stored at 2–8 °C until analysis for peptide toxins.
(§3) UPLC and MS/MS parameters were as described in our previous study. The limit of detection and limit of quantitation of each toxin in the bile were 0.03 mg/kg and 0.5 mg/kg, respectively.

[2] = Peptide toxins in the bile of beagles with biliary drainage; format: in vivo, beagle dogs; settings: for Accumulated amounts excreted in bile / percentage of total bile excretion, Accumulated amounts: 0–4 days
Description: as §1, §2
α-Amanitin, β-amanitin, γ-amanitin, and phallacidin were used as the standard reference materials. Aliquots (0.2 mL) of bile samples were transferred into 2-mL polypropylene centrifuge tubes in duplicates. Next, 1 mL of acetonitrile was added to each tube. After vortex-mixing for 1 min, each sample was sonicated for 30 min and centrifuged at 11,200× g for 10 min at 4 °C. The supernatants were loaded on solid-phase extraction columns (Oasis PRiME HLB, 60 mg, 3 cc). The columns were then washed with 3 mL of methanol/ultrapure water (v/v: 5/95). The eluent was evaporated in a stream of nitrogen at room temperature. The dry residue was dissolved in 0.2 mL of ultrapure water and analyzed by UPLC-ESI-MS/MS.
as §3

[3] = 0-1 d, 20 mg/kg with biliary drainage group
[4] = 0-1 d, 60 mg/kg with biliary drainage group
[5] = 0–1 days, 20 mg/kg with biliary drainage group
[6] = 0–1 days, 60 mg/kg with biliary drainage group
[7] = 20 mg/kg with biliary drainage group
[8] = 60 mg/kg with biliary drainage group
[9] = 1-2 d, 20 mg/kg with biliary drainage group
[10] = 1-2 d, 60 mg/kg with biliary drainage group
[11] = 1–2 days, 20 mg/kg with biliary drainage group
[12] = 1–2 days, 60 mg/kg with biliary drainage group
[13] = 2-3 d, 20 mg/kg with biliary drainage group
[14] = 2-3 d, 60 mg/kg with biliary drainage group
[15] = 2–3 days, 20 mg/kg with biliary drainage group
[16] = 2–3 days, 60 mg/kg with biliary drainage group
[17] = 3-4d, 20 mg/kg with biliary drainage group
[18] = 3-4d, 60 mg/kg with biliary drainage group
[19] = 3–4 days, 20 mg/kg with biliary drainage group
[20] = 3–4 days, 60 mg/kg with biliary drainage group

## CC(C)[C@@H]1NC(=O)[C@H](C[C@@](C)(O)CO)NC(=O)[C@@H]2Cc3c([nH]c4ccccc34)SC[C@H](NC(=O)[C@@H]([C@H](O)C(=O)O)NC1=O)C(=O)N1C[C@@H](O)C[C@H]1C(=O)N[C@@H](C)C(=O)N2 [phallacidin] (cyclo(A[Trp(2-yl)][Leu(4R-OH,5-OH)]V[dAsp(3S-OH)]C[cisHyp]); thioether 2-6)
[1]; [3]
  detection rate of peptide toxins in urine: 100%
[1]; [4]
  detection rate of peptide toxins in urine: 100%
[1]; [5]
  daily amount excreted in urine: 0.0012 mg
[1]; 0–1 days, 20 mg/kg with biliary drainage group, 20 mg/kg
  percentage of total urine excretion excreted daily: more than 90%
[1]; 0–1 days, 20 mg/kg with biliary drainage group, listed as Phallacidin, 20 mg/kg
  percentage of total urine excretion excreted daily: 92.2%
[1]; [6]
  daily amount excreted in urine: 0.0017 mg
  percentage of total urine excretion excreted daily: 70.5%
[1]; [7]
  Total (accumulated) amount excreted in urine: 0.0014 mg
  percentage of total urine excretion, Total: 100%
  time within which toxin was detected in urine: two
[1]; [8]
  Total (accumulated) amount excreted in urine: 0.0025 mg
  percentage of total urine excretion, Total: 100%
  time within which toxin was detected in urine: three
[1]; [9]
  detection rate of peptide toxins in urine: 83%
[1]; [10]
  detection rate of peptide toxins in urine: 100%
[1]; [11]
  daily amount excreted in urine: 0.0001 mg
  percentage of total urine excretion excreted daily: 7.8%
[1]; [12]
  daily amount excreted in urine: 0.0005 mg
  percentage of total urine excretion excreted daily: 22.1%
[1]; [13]
  detection rate of peptide toxins in urine: 0%
[1]; 2-3d, 20 mg/kg with biliary drainage group, mean ± SD
  toxin content in urine: 0 µg/L
[1]; [14]
  detection rate of peptide toxins in urine: 50%
[1]; [15]
  daily amount excreted in urine: 0(0%) mg
  percentage of total urine excretion excreted daily: 0(0%)
[1]; [16]
  daily amount excreted in urine: 0.0002 mg
  percentage of total urine excretion excreted daily: 7.5%
[1]; [17]
  detection rate of peptide toxins in urine: 0%
  toxin content in urine: 0 µg/L
[1]; [18]
  detection rate of peptide toxins in urine: 0%
  toxin content in urine: 0 µg/L
[1]; [19]
  daily amount excreted in urine: 0(0%) mg
  percentage of total urine excretion excreted daily: 0(0%)
[1]; [20]
  daily amount excreted in urine: 0(0%) mg
  percentage of total urine excretion excreted daily: 0(0%)
[1]; beagles with biliary drainage, both dose groups
  share of total urine excretion in the 0–2-day urine: more than 90%
[2]; [3]
  detection rate of peptide toxins in bile: 83%
[2]; 0-1d, 20 mg/kg with biliary drainage group, mean ± SD
  toxin concentration in bile: 0 µg/L
[2]; [4]
  detection rate of peptide toxins in bile: 83%
[2]; [5]
  daily amount excreted in bile: 0.00005 mg
  percentage of total bile excretion excreted daily: 100%
[2]; [6]
  daily amount excreted in bile: 0.0002 mg
  percentage of total bile excretion excreted daily: 81.7%
[2]; [7]
  Accumulated amounts excreted in bile: 0.00005 mg
  percentage of total bile excretion, Accumulated amounts: 100%
[2]; [8]
  percentage of total bile excretion, Accumulated amounts: 100%
[2]; 60 mg/kg with biliary drainage group, 60 mg/kg
  Accumulated amounts excreted in bile: 0.00024 mg
[2]; 20 mg/kg with biliary drainage group, mean ± SD
  ratio of peptide toxins in bile to excretion in urine and bile: less than 10%
[2]; 20 mg/kg with biliary drainage group, mean ± SD, listed as Phallacidin
  ratio of peptide toxins in bile to excretion in urine and bile: 4.8 ± 5.7%
[2]; 60 mg/kg with biliary drainage group, mean ± SD
  ratio of peptide toxins in bile to excretion in urine and bile: less than 20%
[2]; 60 mg/kg with biliary drainage group, mean ± SD, listed as Phallacidin
  ratio of peptide toxins in bile to excretion in urine and bile: 9.4 ± 6.4%
[2]; [9]
  detection rate of peptide toxins in bile: 0%
  toxin concentration in bile: 0 µg/L
[2]; [10]
  detection rate of peptide toxins in bile: 75%
[2]; [11]
  daily amount excreted in bile: 0(0%) mg
  percentage of total bile excretion excreted daily: 0(0%)
[2]; [12]
  daily amount excreted in bile: 0.00004 mg
  percentage of total bile excretion excreted daily: 18.3%
[2]; [13]
  detection rate of peptide toxins in bile: 0%
  toxin concentration in bile: 0 µg/L
[2]; [14]
  detection rate of peptide toxins in bile: 0%
  toxin concentration in bile: 0 µg/L
[2]; [15]
  daily amount excreted in bile: 0(0%) mg
  percentage of total bile excretion excreted daily: 0(0%)
[2]; [16]
  daily amount excreted in bile: 0(0%) mg
  percentage of total bile excretion excreted daily: 0(0%)
[2]; [17]
  detection rate of peptide toxins in bile: 0%
  toxin concentration in bile: 0 µg/L
[2]; [18]
  detection rate of peptide toxins in bile: 0%
  toxin concentration in bile: 0 µg/L
[2]; [19]
  daily amount excreted in bile: 0(0%) mg
  percentage of total bile excretion excreted daily: 0(0%)
[2]; [20]
  daily amount excreted in bile: 0(0%) mg
  percentage of total bile excretion excreted daily: 0(0%)
